# In PMC9386018, “A lymphatic-absorbed multi-targeted kinase inhibitor for myelofibrosis therapy” (Nature Communications, 2022):
# Columns and labels:
# Microsomal stability = assay type: in vitro ADME; settings: mouse, liver microsomes; ~1 µM, NADPH, 37 °C; read-out: t1/2 in murine liver microsomes
# Experimental: Quantitative determination of LP-182 stability in murine liver microsomes was performed by the University of Michigan Pharmacokinetics Core. […]; in 100 mM phosphate buffer, 3 mM MgCl2) to a final concentration of […], and then reactions were sampled over 60 min. Aliquots were removed at the designated time points, quenched by addition of 4 volumes of cold acetonitrile, then centrifuged at 10,000 x g for 5 min to pellet protein precipitates. […] The natural log peak area ratio of compound to internal standard (Acmpd/AIstd) was plotted against time to determine pharmacokinetic properties of microsomal stability. All analyses, data processing, and calculations were performed and provided by the core. Data was generated from a single independent experiment.
# [1] = Fractionation of lymphatic fluid into lipoprotein fractions by ultracentrifugation; assay type: in vivo; settings: rat lymphatic fluid, 50 mg kg^−1 intra-duodenal
# Experimental: Briefly, acetonitrile was added to a final concentration of 60–80% to bone marrow, whole blood, plasma, lymphatic fluid, lymphatic proteo-lipid sub-fractions, or mesenteric lymph node samples for compound extraction. Extraction was performed by shaking and/or bead rupture using a Precellys Evolution tissue homogenizer (Bertin Technologies SAS). […] Optimization of MS and MS/MS parameters for MRM quantitation and maximum sensitivity of individual compounds was performed using SCIEX Analyst software (AB Sciex). […] All LC-MS/MS acquisitions were performed with an independent standard curve for each group of analytes and for each individual run. All solvents utilized were of Optima LC-MS Grade (Fisher Scientific). Data was generated from n ≥ 2 individual animals per compound per study condition or dose.
# [2] = test system: pAKT (pS473) in splenocytes; test: MPL^W515L MF mouse model: pAKT in splenocytes by flow cytometry; assay type: in vivo; settings: MPL^W515L mice, oral 400 mg kg^−1 daily, 28 d
# Experimental: (§1) The human megakaryoblastic cell line, SET-2 (ATCC), was maintained in RPMI 1640 supplemented with 20% FBS and incubated for 16 h at 10^6 cells mL^−1 with LP-182 or vehicle (DMSO; dimethyl sulfoxide), then washed in ice-cold PBS, and collected for flow cytometry analysis. Single-cell suspensions of mouse spleen were prepared from MPL^W515L MF mice (below) in RPMI 1640 supplemented with 5% FCS. Red blood cells were lysed by ammonium chloride-mediated red cell lysis (RCL) buffer and passed through a nylon mesh, and then cells were counted. For intracellular phospho-protein staining, SET-2 or spleen cells were fixed and then permeabilized using BD Phospho-flow fixation buffer and Perm-Buffer III (BD biosciences) according to the manufacturer’s protocol. Intracellular phospho-protein staining was performed using fluorochrome-conjugated antibodies, pAKT (pS473)-Alexa Fluor 647 (MB89-61) or pERK1/2 (pT202/pY204)-Alexa Fluor 647 (20 A). […] Flow cytometry was performed on a FACS Fortessa (Becton, Dickinson and Co.) using FACSDiVa software, and data analyzed using FlowJo software (Tree Star). […]
# (§2) Generation of the MPL^W515L mutant MF mouse model was similar to previously described methods. […] Development of MF was evaluated by spleen volumes using MRI beginning ~14 d following bone marrow transplantation (BMT) as outlined below, continuing weekly until end of the study. […]
# [3] = test system: GFP-positive MPL^W515L cells; test: MPL^W515L MF mouse model Study 2: GFP-positive cell frequencies; assay type: in vivo; settings: Study 2, MPL^W515L mice, oral 400 mg kg^−1 daily, 14 d
# Experimental: as §1, §2
compound,measurement,setting,value
"O=C(NOCCOCCOCCOCCC(=O)N1CCN(c2cnc3ccc(-c4cnc(Cl)c(NS(=O)(=O)c5ccc(F)cc5)c4)cc3n2)CC1)c1ccc(F)c(F)c1Nc1ccc(I)cc1F [LP-182, N-(2-(2-(2-(3-(4-(7-(6-chloro-5-((4-fluorophenyl)sulfonamido)pyridin-3-yl)quinoxalin-2-yl)piperazin-1-yl)-3-oxopropoxy)ethoxy)ethoxy)ethoxy)-3,4-difluoro-2-((2-fluoro-4-iodophenyl)amino)benzamide]",half-life,Microsomal stability,~8 min
same,"association with VLDL fraction, % of total",[1],9.7%
same,"association with chylomicron fraction, % of total",[1],8.0%
same,active AKT level in splenocytes,[2],reduced active AKT and ERK1/2 levels to those comparable to healthy control mice
same,GFP-positive MPL^W515L neutrophil frequency,[3],reduced
